Patent US9364496B2 (ONCOGENEX TECHNOLOGIES INC., priority 2013, dated 2016)
Several values for one entry are separate records, joined by “and”; a condition that tells them apart may be missing. Equal entries are not always repeated. Entries after “also recorded” stand apart in the source; their conditions may differ. Where two headings read alike, the source gives them in different places.

Columns and labels:
[1] = tested on: RPMI 8226 (human myeloma) xenograft; assay: In vivo activity of custirsen with Velcade, RPMI 8226 xenograft (Example 14); details: for efficacy (tumor growth), in words: Velcade 0.5 mg/kg iv; for Day 27 Δ volume / Day 34 Δ volume / Day 41 Δ volume / Day 45 Δ volume: vs Day 20
Experimental: The cells were implanted subcutaneously into female SCID mice with 7×10^6 cells inoculum.
Tumors and body weights were measured weekly until termination of the study on day 71. Response to treatment was evaluated for tumor growth inhibition (TGI) and tumor growth delay (TGD).
70 CB.17 SCID female mice, 4-6 weeks old, 16-20 grams, obtained from Harlan animal breeding center.
Sample from the cell suspension was taken for counting (0.3 ml in duplicates for CEDEX) before spun down. Cell viability was 85.6% and live cell concentration was 167×10^5 cells/ml. The pellet was resuspended in HBSS to a final volume of 8 ml.
Tumors were implanted subcutaneously with RPMI-8226 cells into the right flank of the mouse on Day 0. Each animal received a s.c. injection 7×10^6 cells in 0.1 ml suspension. On day 20, mice were sorted by the optimal tumor volume ([…]) and were allocated into 5 groups of 10 mice. Mice were individually tagged and their tumor volume and body weight were monitored weekly during the study. Tumor size was measured by caliper and calculated using the formula: […]
The treatment started on […] (0.2 ml per 20 grams v/w) and continued till day 52, after which the remaining mice were left for observation until day 71.

[2] = cited from earlier work
[3] = Randomized Phase 2 Study OGX-011-03, custirsen plus docetaxel vs docetaxel; details: per arm
[4] = Velcade 0.5 mg/kg iv biwk, Day 48, individual mice
[5] = Velcade 0.5 mg/kg iv biwk, Day 51, group mean
[6] = Velcade 0.5 mg/kg iv biwk, Day 51, individual mice
[7] = Velcade 0.5 mg/kg iv biwk, day 51
[8] = Velcade 0.5 mg/kg iv biwk, earlier day (day not given), group mean, tumor
[9] = Velcade 0.5 mg/kg iv biwk, earlier day (day not given), individual mouse, tumor
[10] = Velcade 0.5 mg/kg iv biwk, group Mean, n 10
[11] = Velcade 0.5 mg/kg iv biwk, individual mouse
[12] = Velcade 0.5 mg/kg iv biwk, later day (day not given), group mean, tumor
[13] = Velcade 0.5 mg/kg iv biwk, later day (day not given), individual mouse, tumor

In the case of `CC(C)C[C@H](NC(=O)[C@H](Cc1ccccc1)NC(=O)c1cnccn1)B(O)O` [Velcade®, Bortezomib, reference compound], the “efficacy (tumor growth), in words” value [1] is reported as “moderate but not statistically significant efficacy; also recorded: moderate and not statistically significant effect”, the volume ([1]; Velcade 0.5 mg/kg iv biwk, Day 48, group mean) is reported as 749.8 and the volume [1, 4] is reported as 520 and 868 and 757 and 647 and 687 and 470 and 1151 and 789. For the same compound, the Δ volume [1, 4] was 401.6 and 745.2 and 624.2 and 508.9 and 919.1 and 403.8 and 310.7 and 988.8 and 625.7, the volume [1, 5] was 1027.5 and the Δ volume [1, 5] was 884.2. The volume [1, 6] was 767 and 1043 and 1313 and 774 and 1432 and 917 and 1635 and 1195, the Δ volume [1, 6] was 648.2 and 920.6 and 1179.9 and 636.4 and 1291.7 and 474.1 and 768.2 and 418.7 and 1473.4 and 1031.3 and the “% TGI day 51” value [1, 7] was 28%. The “No. of CR” value [1, 7] was 0, the “No. of PR” value [1, 7] was 0 and the “No. of TRD” value [1, 7] was 0. The “No. og nTRD” value [1, 7] was 0, the “Δ mean tumor volume, (mean ± se)” value [1, 7] was 884 ± 356 and the volume [1, 8] was 1366.1. For the same compound, the Δ volume [1, 8] was 1224.9, the volume [1, 9] was 1019 and 1659 and 1885 and 779 and 2196 and 721 and 1500 and 885 and 1651 and the Δ volume [1, 9] was 900.3 and 1536.1 and 1752.5 and 640.9 and 2055.5 and 1351.3 and 724.9 and 1487.1. The “Day 20 volume” value [1, 10] was 143.2, the “Day 27 volume” value [1, 10] was 213.1 and the “Day 34 volume” value [1, 10] was 251.6. For the same compound, the “Day 41 volume” value [1, 10] was 422.8, the “Day 27 Δ volume” value [1, 10] was 69.9 and the “Day 34 Δ volume” value [1, 10] was 108.3. The “Day 41 Δ volume” value [1, 10] was 279.5, the “Day 45 Δ volume” value [1, 10] was 431.8 and the “Day 20 volume” value [1, 11] was 133 and 138 and 141 and 145 and 149 and 160 and 162 and 164. For the same compound, the “Day 27 volume” value [1, 11] was 225 (2×) and 260 and 235 and 253 and 206 and 231 and 149 and 185 and 162, the “Day 34 volume” value [1, 11] was 185 and 232 and 255 and 286 and 266 and 285 and 272 and 162 and 343 and 230 and the “Day 41 volume” value [1, 11] was 289 and 481 and 501 and 387 and 491 and 443 and 475 and 269 and 528 and 384. The “Day 45 volume” value [1, 11] was 430 and 667 and 507 and 733 and 495 and 663 and 351 and 744, the “Day 27 Δ volume” value [1, 11] was 137.0 and 102.2 and 115.3 and 65.3 and 85.8 and −0.6 and 25.6 and 63.7 and −2.2 and the “Day 34 Δ volume” value [1, 11] was 66.0 and 109.0 and 148.3 and 140.0 and 2.9 and 181.4 and 65.9. For the same compound, the “Day 41 Δ volume” value [1, 11] was 170.3 and 358.8 and 368.2 and 249.1 and 349.9 and 297.3 and 325.8 and 109.0 and 366.6 and 200.2, the “Day 45 Δ volume” value [1, 11] was 311.5 and 488.4 and 368.7 and 350.1 and 514.1 and 191.8 and 374.8 and the volume [1, 12] was 1236.8. The Δ volume [1, 12] was 1096.4, the volume [1, 13] was 1484 and 881 and 1166 and 1417 and the Δ volume [1, 13] was 1365.3 and 742.6 and 1020.7 and 1257.1. For the same compound, the “efficacy (tumor growth), in words” value ([1]; listed as Velcade) was “moderate”.
For `CC(=O)O[C@@]12CO[C@@H]1C[C@H](O)[C@@]1(C)C(=O)[C@H](O)C3=C(C)[C@@H](OC(=O)[C@H](O)[C@@H](NC(=O)OC(C)(C)C)c4ccccc4)C[C@@](O)([C@@H](OC(=O)c4ccccc4)[C@H]21)C3(C)C` [Docetaxel], the “grade 4 neutropenia (<500 cells/mm^3), patients” value ([2]; 60 mg/m^2) is given as 75%, the “grade 4 neutropenia (<500 cells/mm^3), patients” value ([2]; 100 mg/m^2) is given as 85% and the “neutropenia (<2,000 neutrophils/mm3), occurrence” value ([2]; 60-100 mg/m^2) is given as “virtually all patients”. For the same compound, the “incidence of elevated creatinine (primarily grade 1/2)” value [3] was 5%.
